Laboratory results reported in patent US10874686B2, “Anthranilyl-adenosinemonosulfamate analogs and uses thereof” (Memorial Sloan-Kettering Cancer Center, priority 2015, dated 2020).

Legend:
P. aeruginosa PqsA = P. aeruginosa PqsA (Pseudomonas aeruginosa, UniProt Q9I4X3); experiment: PqsA inhibition, spectrophotometric assay with recombinant PqsA (anthranilyl-CoA formation at 365 nm); type: biochemical; conditions: for inhibition at 10 µM: read-out: % inhibition at 10 μM of P. aeruginosa PqsA, 10 μM; for IC50: IC50 for inhibition of P. aeruginosa PqsA; for PqsA inhibition, potency in words: short time scale of the assay
Method: PqsA inhibitors were evaluated using a quantitative spectrophotometric assay with recombinant PqsA, detecting formation of anthranilyl-CoA at 365 nm. See, e.g., Coleman et al. (2008) J. Bacteriol. 190, 1247. […] See, e.g., Morrison et al. Biochim. Biophys. Acta, Enzymol. 185, 269-286; Williams et al. (1979) Methods Enzymol. 63, 437. […] See, e.g., Qiao et al. (2007) J. Am. Chem. Soc. 129, 6350.
Reactions were performed at 37° C. in a 0.5 mL volume in a Varian Cary 100 UV-visible spectrophotometer with Cary WinUV software. Reaction mixtures contained 100 mM HEPES, pH 8.0, 0.2 mM dithiothreitol, 2 mM MgCl2, ˜3.3 μg PqsA protein (˜60 nM final), and depending on which substrate varied, 1 mM ATP (disodium salt), 0.5 mM coenzyme A (tri-lithium salt), 0.5 mM sodium anthranilate, and inhibitor (usually as a DMSO stock solution). Reactions were blanked and preincubated with all components except anthranilate at 37° C. for 1 min, then initiated by addition of anthranilate. Formation of anthraniloyl-CoA was monitored ance at 365 nm (ε=5.5 mM−1 cm−1) for 1 min. Data were analyzed using GraphPad Prism 6 software.

[1] = system: HHQ and PQS quinolone production in P. aeruginosa strain PA14; experiment: Inhibition of HHQ and PQS quinolone production in P. aeruginosa strain PA14 (LC-MS/MS); type: cell-based, Pseudomonas aeruginosa; conditions: 1.5 mM, HHQ 8 h, PQS 20 h
Method: The production of PQS and HHQ by strain PA14 was performed in triplicate in 14-mL round bottom falcon tubes containing 3-mL cultures in LB medium. Tubes were incubated at 37° C. in an orbital shaker at 225 rpm. Cultures were inoculated with 15-hour culture in LB in order to obtain a starting OD600=0.05, with or without inhibitors added. For PQS and HHQ analysis, a 20 μl aliquot was taken at time points as indicated. Each sample was diluted with 180 μL of methanol containing the internal standard (100 μM of d^4-PQS or d^4-HHQ) and 2% acetic acid. The solution was then vertexed and centrifuged at 13,000 g for 5 minutes, and the supernatant was transferred to a 96-well plates for LC-MS/MS analysis. Bacterial growth was measured by recording OD600 at 20 h to provide the data in FIG. 7A.
Liquid chromatography tandem mass spectrometry (LC-MS/MS) was carried out on an Agilent Technologies 6410 triple quad LC-MS/MS system with autosampler in electrospray ionization (ESI) mode, with an Agilent Zorbax Eclipse XDB-C18 reverse phase column (50×4.6 mm, 5 μm) using a flow rate of 0.5 mL/minute and an isocratic mobile phase of 60% CH3CN in 0.1% aqueous formic acid over 5 minutes. Positive electrospray in MRM mode was employed to quantify PQS and HHQ, using the ion transitions HHQ 244 to 159, d^4-HHQ 248 to 163, PQS 260 to 175, and d^4-PQS 264 to 179; shown in Table E3.
PqsA inhibitors 1-5 were evaluated for their ability to inhibit HHQ and PQS quinolone production in P. aeruginosa strain PA14 (FIG. 6). HHQ and PQS concentrations were determined by LC-MS/MS quantitation relative to deuterated internal standards. 6-Fluoroanthranilate (6FABA), a substrate analogue reported previously to inhibit quinolone production at millimolar concentrations, was used as a positive control. Compounds were initially tested at 1.5 mM concentration, and HHQ and PQS were quantified at 8 and 20 hours, respectively. These time points were selected based on an initial time course study of quinolone production in the absence of inhibitors, with HHQ or PQS production peaking at these respective time points. […] This could be due to differences in cell penetration, stability, and/or target specificity. Finally, because inhibitors of the quinolone quorum sensing pathway should not impact bacterial growth, we confirmed that none of the six inhibitors above inhibited growth over 20 h (FIG. 7A). Encouraged by the ability of anthranilyl-AMS (1) and anthranilyl-AMSN (2) to inhibit HHQ and PQS quinolone production, the activity of these two inhibitors and 6FABA were investigated in greater detail. In untreated controls, HHQ and PQS production peaked at 8 and 20 hours, respectively. Previously reported time course studies have similarly shown that HHQ levels peak at 6-8 hours while PQS levels continue to rise. See, e.g., Deziel et al. (2004) Proc. Natl. Acad. Sci. U.S.A 101, 1339; Kesarwani et al. (2011) PLoS Pathog. 7, e1002192. All three inhibitors were able to decrease quinolone production in a dose- and time-dependent manner (FIG. 2A). […] Such a perturbation might still be sufficient to impact P. aeruginosa virulence in vivo. […] See, e.g., Lesic et al. (2007) PLoS Pathog. 3, e126.

PqsA = PqsA (Pseudomonas aeruginosa, UniProt Q9I4X3); conditions: previous biochemical studies; read-out: Km as PqsA substrate; cited from earlier work

SMILES	inhibition at 10 µM (P. aeruginosa PqsA)	IC50 (P. aeruginosa PqsA)	further results
Nc1ncnc2c1ncn2[C@@H]1O[C@H](COS(=O)(=O)NC2(c3ccccc3)COC2)[C@@H](O)[C@H]1O [DST-Pqs32]	2.3 ± 0.9%	–	–
NCc1ccccc1Nc1nc(N)c2ncn([C@@H]3O[C@H](COS(=O)(=O)NC(=O)c4ccccc4N)[C@@H](O)[C@H]3O)c2n1 [DST-Pqs27]	84.8 ± 1.5%	5.24 µM	–
CNc1ncnc2c1ncn2[C@@H]1O[C@H](COS(=O)(=O)NC(=O)c2ccccc2N)[C@@H](O)[C@H]1O [DST-Pqs19]	32.1 ± 2.8%	39.2 µM	–
NCc1ccc(Nc2nc(N)c3ncn([C@@H]4O[C@H](COS(=O)(=O)NC(=O)c5ccccc5N)[C@@H](O)[C@H]4O)c3n2)cc1 [DST-Pqs29]	–	–	% inhibition at 10 μM of P. aeruginosa PqsA (P. aeruginosa PqsA): 76.0 ± 1.3%
Nc1ncnc2c1ncn2[C@@H]1O[C@H](COS(=O)(=O)NC(=O)c2cccnc2Cl)[C@@H](O)[C@H]1O [DST-Pqs8]	10.3 ± 5.3%	–	–
Nc1ncnc2c1ncn2[C@@H]1O[C@H](COS(=O)(=O)NC2(c3ccccc3O)COC2)[C@@H](O)[C@H]1O [DST-Pqs31]	< 1%	–	–
Nc1cccc(Cl)c1C(=O)NS(=O)(=O)OC[C@H]1O[C@@H](n2cnc3c(N)ncnc32)[C@H](O)[C@@H]1O [DST-Pqs16]	100%	0.552 µM	–
Nc1ccc(Cl)cc1C(=O)NS(=O)(=O)OC[C@H]1O[C@@H](n2cnc3c(N)ncnc32)[C@H](O)[C@@H]1O [DST-Pqs15]	97.3 ± 0.9%	1.53 µM	–
Nc1ccccc1C(=O)NS(=O)(=O)OC[C@H]1O[C@@H](n2cnc3c(N)ncnc32)C[C@@H]1O [JI-C-2014-008]	99.8 ± 0.2%	0.444 µM	–
Nc1ccccc1C(=O)NS(=O)(=O)OC[C@H]1O[C@@H](n2cnc3c(N)nc(C#Cc4ccccc4)nc32)[C@H](O)[C@@H]1O [JI-C-2013-456]	95.9 ± 0.4%	1.46 µM	–
Nc1c(Cl)cccc1C(=O)NS(=O)(=O)OC[C@H]1O[C@@H](n2cnc3c(N)ncnc32)[C@H](O)[C@@H]1O [DST-Pqs13]	97.2 ± 1.2%	1.23 µM	–
Nc1ncnc2c1ncn2[C@@H]1O[C@H](CNS(=O)(=O)NC(=O)c2ccccc2O)[C@@H](O)[C@H]1O [salicyl-AMSN, Salicyl-AMSN, reference compound]	–	–	PqsA inhibition, potency in words (P. aeruginosa PqsA): potency similar to that of the cognate anthranilyl inhibitors; inhibition of quinolone production, in words [1]: less potent inhibitors of quinolone production
Nc1ccccc1C(=O)NS(=O)(=O)OC[C@H]1O[C@@H](n2cnc3c(N)nc(-c4ccccc4)nc32)[C@H](O)[C@@H]1O [JI-C-2013-454]	42.7 ± 0.2%	25 µM	–
Nc1ccccc1/C=C/S(=O)(=O)NC[C@H]1O[C@@H](n2cnc3c(N)ncnc32)[C@H](O)[C@@H]1O [compound 6, Anthranilyl-AVSN]	–	–	PqsA inhibition, potency in words (P. aeruginosa PqsA): not as effective
Nc1cccc(F)c1C(=O)NS(=O)(=O)OC[C@H]1O[C@@H](n2cnc3c(N)ncnc32)[C@H](O)[C@@H]1O [DST-Pqs12]	100%	0.516 µM	–
Nc1ncnc2c1ncn2[C@@H]1O[C@H](COS(=O)(=O)NC2(c3ccccc3F)COC2)[C@@H](O)[C@H]1O [DST-Pqs30]	< 1%	–	–
Nc1cc(C(F)(F)F)ccc1C(=O)NS(=O)(=O)OC[C@H]1O[C@@H](n2cnc3c(N)ncnc32)[C@H](O)[C@@H]1O [DST-Pqs10]	1.1 ± 2.6%	–	–

SMILES	inhibition at 10 µM (P. aeruginosa PqsA)	IC50 (P. aeruginosa PqsA)	further results
Nc1ccccc1C1(NS(=O)(=O)OC[C@H]2O[C@@H](n3cnc4c(N)ncnc43)[C@H](O)[C@@H]2O)COC1 [DST-Pqs33]	4.6 ± 2.9%	–	–
Nc1cc(F)ccc1C(=O)NS(=O)(=O)OC[C@H]1O[C@@H](n2cnc3c(N)ncnc32)[C@H](O)[C@@H]1O [DST-Pqs11]	100%	0.107 µM	–
Nc1ccccc1C(=O)NS(=O)(=O)NC[C@H]1O[C@@H](n2cnc3c(N)ncnc32)[C@H](O)[C@@H]1O [DST-Pqs2]	100%	0.213 µM	–
Nc1ccccc1C(=O)NS(=O)(=O)OC[C@H]1O[C@@H](n2cnc3c(N)ncnc32)[C@H](N)[C@@H]1N [JI-C-2013-189]	77.8 ± 0.2%	7.22 µM	–
CN(C)c1ncnc2c1ncn2[C@@H]1O[C@H](COS(=O)(=O)NC(=O)c2ccccc2N)[C@@H](O)[C@H]1O [DST-Pqs18]	21.3 ± 1.9%	–	–
Nc1ccccc1C(=O)O [anthranilate]	–	–	Km (PqsA): 8 µM
Nc1ccccc1C(=O)NS(=O)(=O)OC[C@H]1O[C@@H](n2cnc3c(NC4CC4)ncnc32)[C@H](O)[C@@H]1O [DST-Pqs17]	1.3 ± 3%	–	–
Nc1ccccc1C(=O)NS(=O)(=O)OC[C@H]1O[C@@H](n2cnc3c(N)ncnc32)[C@H](O)[C@@H]1O [DST-Pqs1]	98.6 ± 2.3%	0.309 µM	–
O=C(O)c1ccccc1 [benzoate]	–	–	Km (PqsA): 150 µM
NCc1ccc(Nc2nc(N)c3ncn([C@@H]4O[C@H](COS(=O)(=O)NC(=O)c5ccccc5N)[C@@H](O)[C@H]4O)c3n2)cc1 [DST-Pqs28]	–	–	% inhibition at 10 μM of P. aeruginosa PqsA (P. aeruginosa PqsA): 9.5 ± 3.9%
Nc1ncnc2c1ncn2[C@@H]1O[C@H](CNS(=O)(=O)/C=C/c2ccccc2O)[C@@H](O)[C@H]1O [compound 7, Salicyl-AVSN, reference compound]	–	–	PqsA inhibition, potency in words (P. aeruginosa PqsA): not as effective
Nc1ccccc1C(=O)NS(=O)(=O)OC[C@H]1O[C@@H](n2cnc3c(N)nc(Nc4ccccc4)nc32)[C@H](O)[C@@H]1O [JI-C-2013-451]	95.1 ± 0.2%	2.07 µM	–
Nc1cc2ccccc2cc1C(=O)NS(=O)(=O)OC[C@H]1O[C@@H](n2cnc3c(N)ncnc32)[C@H](O)[C@@H]1O [DST-Pqs9]	< 1%	–	–
Nc1ncnc2c1ncn2[C@@H]1O[C@H](COS(=O)(=O)NC(=O)c2ccccc2)[C@@H](O)[C@H]1O [Benzoyl-AMS, reference compound]	–	–	PqsA inhibition, potency in words (P. aeruginosa PqsA): somewhat weaker inhibitor; inhibition of quinolone production, in words [1]: less potent inhibitors of quinolone production
Nc1ccccc1C(=O)NS(=O)(=O)OC[C@@H]1CC[C@H](n2cnc3c(N)ncnc32)O1 [JI-C-2014-025]	91.2 ± 0.9%	5 µM	–
Nc1ncnc2c1ncn2[C@@H]1O[C@H](COS(=O)(=O)NC(=O)c2ccccc2O)[C@@H](O)[C@H]1O [salicyl-AMS, Salicyl-AMS, reference compound]	–	–	PqsA inhibition, potency in words (P. aeruginosa PqsA): potency similar to that of the cognate anthranilyl inhibitors; inhibition of quinolone production, in words [1]: less potent inhibitors of quinolone production
Nc1cc(Cl)ccc1C(=O)NS(=O)(=O)OC[C@H]1O[C@@H](n2cnc3c(N)ncnc32)[C@H](O)[C@@H]1O [DST-Pqs14]	–	0.828 µM	–
